Literature values, collected in patent US20080287669A1, “METHODS AND COMPOSITIONS FOR IDENTIFYING COMPOUNDS USEFUL IN NUCLEIC ACID PURIFICATION” (priority 2007, published 2008).
Where a name gives a salt, the structure may show the parent alone. Read-outs that look alike come from different tables or passages of the source.

Settings: for Dielectric Constant: Table 4, exemplary solvents
[1] = Table 2, very soluble organic solvents
[2] = Table 3, miscible organic solvents
[3] = Table 1, soluble organic solvents

Row | SMILES | Dielectric Constant (DC) [2] | Dielectric Constant (DC) [3] | other results
1 | OCCCCC(O)CO (stereo not shown) [1,2,6-hexanetriol] | – | – | Dielectric Constant (DC) [1]: 31.5
2 | CC(O)CO (stereo not shown) [1,2-propanediol] | 27.5 | – | –
3 | CC(O)CCO (stereo not shown) [1,3-butanediol] | 28.8 | – | –
4 | OCCCO [1,3-propanediol] | 35.1 | – | –
5 | OCCCCCO [1,5-pentanediol] | – | 26.2 | –
6 | Brc1cccc2ccccc12 [1-bromonaphthalene] | – | 4.77 | –
7 | Cc1ccnc(C)c1 [2,4-lutidine] | – | – | Dielectric Constant (DC) [1]: 9.6
8 | Cc1ccc(C)c(O)c1 [2,5-xylenol] | – | 5.36 | –
9 | Cc1cccc(C)n1 [2,6-lutidine] | 7.33 | – | –
10 | CC1CCCO1 (stereo not shown) [2-methyl-tetrahydrofuran] | – | 6.97 | –
11 | CCCC(C)O (stereo not shown) [2-pentanol] | – | – | Dielectric Constant (DC) [1]: 13.71
12 | Cc1ccccn1 [2-picoline] | – | – | Dielectric Constant (DC) [1]: 10.18
13 | CC(C)O [2-propanol] | 20.18 | – | –
14 | Cc1cc(C)cc(O)c1 [3,5-xylenol] | – | 9.06 | –
15 | Cc1cccnc1 [3-picoline] | 11.1 | – | –
16 | Cc1ccncc1 [4-picoline] | 12.2 | – | –
17 | CN1CCCC1=O [N-methyl-2-pyrrolidone] | – | – | Dielectric Constant (DC) [1]: 32.2
18 | CC=O [acetaldehyde] | 21 | – | –
19 | CC(N)=O [acetamide] | – | – | Dielectric Constant (DC) [1]: 67.6
20 | CC(=O)O [acetic acid] | 6.2 | – | –
21 | CC(=O)OC(C)=O [acetic anhydride] | – | – | Dielectric Constant (DC) [1]: 22.45
22 | C=CCO [allyl alcohol] | 19.7 | – | –
23 | OCc1ccccc1 [benzyl alcohol] | – | 11.92 | –
24 | CCCC=O [butanal] | – | 13.45 | –

Row | SMILES | Dielectric Constant (DC) [2] | Dielectric Constant (DC) [3] | other results
25 | CCCC(=O)O [butanoic acid] | 2.98 | – | –
26 | CCCCN [butylamine] | 4.71 | – | –
27 | S=C=S [carbon disulfide] | – | 2.63 | –
28 | FC(F)Cl [chlorodifluoromethane] | – | – | Dielectric Constant (DC) [1]: 6.11
29 | O=C1CCCCC1 [cyclohexanone] | – | 16.1 | –
30 | NC1CCCCC1 [cyclohexylamine] | – | 4.55 | –
31 | CC(=O)CC(C)(C)O [diacetone alcohol] | 18.2 | – | –
32 | CCCCNCCCC [dibutylamine] | – | 2.77 | –
33 | FC(F)(Cl)Cl [dichlorodifluoromethane] | – | 3.5 | –
34 | CCOCCOCCOCC [diethylene glycol diethyl ether] | – | – | Dielectric Constant (DC) [1]: 5.7
35 | NCCNCCN [diethylenetriamine] | 12.62 | – | –
36 | CCC(=O)CC [diethylketone] | – | – | Dielectric Constant (DC) [1]: 17
37 | COC [dimethylether] | – | 6.18 | –
38 | C[S+](C)[O-] [dimethylsulfoxide] | 47.24 | – | Dielectric Constant (DC): 38; Dielectric Constant: 47.2
39 | CCCNCCC [dipropylamine] | – | 3.07 | –
40 | CCO [ethanol, reference compound] | 25.3 | – | Dielectric Constant: 25.3
41 | NCCO [ethanolamine] | 31.94 | – | –
42 | CCOC(C)=O [ethyl acetate] | – | 6.08 | –
43 | CCOC=O [ethyl formate] | – | 8.57 | –
44 | CCOC(=O)CC(C)=O [ethylacetoacetate] | – | – | Dielectric Constant (DC) [1]: 14
45 | CCN [ethylamine] | 8.7 | – | –
46 | CCOCCOC(C)=O [ethylene glycol ethylether acetate] | – | – | Dielectric Constant (DC) [1]: 7.57
47 | COCCOC(C)=O [ethylene glycol monomethylether acetate] | – | – | Dielectric Constant (DC) [1]: 8.25
48 | CCCCOCCO [ethyleneglycol monobutyl ether] | 9.3 | – | –

Row | SMILES | Dielectric Constant (DC) [2] | Dielectric Constant (DC) [3] | other results
49 | NC=O [formamide] | – | – | Dielectric Constant (DC): 111
50 | O=Cc1ccco1 [furfural] | – | 42.1 | –
51 | OCc1ccco1 [furfuryl alcohol] | 16.85 | – | –
52 | OCC(O)CO [glycerol] | 46.53 | – | –
53 | CC(C)CN [isobutylamine] | 4.43 | – | –
54 | CC(=O)C=C(C)C [mesityl oxide] | – | 15.6 | –
55 | CCCCCC(C)=O [methyl pentyl ketone] | – | – | Dielectric Constant (DC) [1]: 11.95
56 | COC(C)=O [methylacetate] | – | – | Dielectric Constant (DC) [1]: 7.07
57 | C1COCCN1 [morpholine] | 7.42 | – | –
58 | C[N+](=O)[O-] [nitromethane] | – | 37.27 | –
59 | Cc1ccccc1O [o-cresol] | – | 6.76 | –
60 | CCCCC(=O)O [pentanoic acid] | – | 2.66 | –
61 | CCCCCN [pentylamine] | 4.27 | – | –
62 | CCC=O [propanal] | – | 18.5 | –
63 | CCC(=O)O [propanoic acid] | 3.44 | – | –
64 | CC1COC(=O)O1 (stereo not shown) [propylene carbonate] | – | – | Dielectric Constant (DC) [1]: 66.14
65 | C1CCNC1 [pyrrolidine] | 8.3 | – | –
66 | O=S1(=O)CCCC1 [sulfolane] | 43.26 | – | Dielectric Constant: 43.26
67 | C1CCOC1 [tetrahydrofuran] | 7.52 | – | Dielectric Constant: 7.52
68 | O=C(O)C(Cl)(Cl)Cl [trichloroacetic acid] | – | – | Dielectric Constant (DC): 4.6
69 | CCOP(=O)(OCC)OCC [triethyl phosphate] | – | 13.2 | –
70 | OCCOCCOCCO [triethyleneglycol] | 23.69 | – | –
71 | CN(C)C [trimethylamine] | – | – | Dielectric Constant (DC) [1]: 2.44
